Assays:
[1] = biological target: T1, Serine/threonine-protein kinase PLK4 (Homo sapiens, UniProt O00444)
T1 sequence (O00444 whole entry): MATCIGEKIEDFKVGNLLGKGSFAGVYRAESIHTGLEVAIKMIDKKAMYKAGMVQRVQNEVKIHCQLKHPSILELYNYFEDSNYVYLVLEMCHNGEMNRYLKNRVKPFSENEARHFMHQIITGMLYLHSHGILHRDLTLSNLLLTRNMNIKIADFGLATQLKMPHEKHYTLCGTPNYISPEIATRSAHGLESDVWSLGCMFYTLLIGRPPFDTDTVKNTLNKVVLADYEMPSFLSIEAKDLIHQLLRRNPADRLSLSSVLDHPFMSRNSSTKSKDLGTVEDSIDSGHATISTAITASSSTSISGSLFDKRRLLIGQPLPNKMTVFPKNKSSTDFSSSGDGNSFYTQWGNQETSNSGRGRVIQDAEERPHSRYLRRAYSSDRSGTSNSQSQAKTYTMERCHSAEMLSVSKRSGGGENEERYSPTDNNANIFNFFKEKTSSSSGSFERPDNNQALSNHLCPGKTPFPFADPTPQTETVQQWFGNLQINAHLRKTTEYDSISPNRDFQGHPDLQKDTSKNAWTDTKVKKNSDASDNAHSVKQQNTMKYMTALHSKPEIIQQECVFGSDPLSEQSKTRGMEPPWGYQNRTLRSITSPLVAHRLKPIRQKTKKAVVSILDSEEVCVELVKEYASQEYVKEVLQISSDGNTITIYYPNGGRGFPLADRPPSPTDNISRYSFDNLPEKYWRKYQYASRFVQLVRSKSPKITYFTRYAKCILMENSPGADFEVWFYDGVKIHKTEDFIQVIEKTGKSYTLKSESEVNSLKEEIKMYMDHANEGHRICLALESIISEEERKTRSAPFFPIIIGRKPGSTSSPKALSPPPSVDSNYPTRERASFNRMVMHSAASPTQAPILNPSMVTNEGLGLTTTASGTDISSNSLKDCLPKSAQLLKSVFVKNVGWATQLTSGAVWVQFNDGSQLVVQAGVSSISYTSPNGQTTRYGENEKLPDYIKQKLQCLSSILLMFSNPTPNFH

[2] = biological target: Serine/threonine-protein kinase 16 (Homo sapiens, UniProt O75716)
Sequence of Serine/threonine-protein kinase 16 (O75716 whole entry): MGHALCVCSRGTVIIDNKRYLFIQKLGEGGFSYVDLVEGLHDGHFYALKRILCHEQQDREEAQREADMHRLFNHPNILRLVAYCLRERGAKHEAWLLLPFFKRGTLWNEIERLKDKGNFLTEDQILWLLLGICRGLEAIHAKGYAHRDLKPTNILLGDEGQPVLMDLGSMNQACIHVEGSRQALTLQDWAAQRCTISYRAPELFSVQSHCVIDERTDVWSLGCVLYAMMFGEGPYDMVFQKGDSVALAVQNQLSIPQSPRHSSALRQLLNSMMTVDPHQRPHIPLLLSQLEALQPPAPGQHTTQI

[3] = biological target: T2, Mitogen-activated protein kinase kinase kinase 5 (Homo sapiens, UniProt Q99683)
T2 sequence (Q99683 whole entry): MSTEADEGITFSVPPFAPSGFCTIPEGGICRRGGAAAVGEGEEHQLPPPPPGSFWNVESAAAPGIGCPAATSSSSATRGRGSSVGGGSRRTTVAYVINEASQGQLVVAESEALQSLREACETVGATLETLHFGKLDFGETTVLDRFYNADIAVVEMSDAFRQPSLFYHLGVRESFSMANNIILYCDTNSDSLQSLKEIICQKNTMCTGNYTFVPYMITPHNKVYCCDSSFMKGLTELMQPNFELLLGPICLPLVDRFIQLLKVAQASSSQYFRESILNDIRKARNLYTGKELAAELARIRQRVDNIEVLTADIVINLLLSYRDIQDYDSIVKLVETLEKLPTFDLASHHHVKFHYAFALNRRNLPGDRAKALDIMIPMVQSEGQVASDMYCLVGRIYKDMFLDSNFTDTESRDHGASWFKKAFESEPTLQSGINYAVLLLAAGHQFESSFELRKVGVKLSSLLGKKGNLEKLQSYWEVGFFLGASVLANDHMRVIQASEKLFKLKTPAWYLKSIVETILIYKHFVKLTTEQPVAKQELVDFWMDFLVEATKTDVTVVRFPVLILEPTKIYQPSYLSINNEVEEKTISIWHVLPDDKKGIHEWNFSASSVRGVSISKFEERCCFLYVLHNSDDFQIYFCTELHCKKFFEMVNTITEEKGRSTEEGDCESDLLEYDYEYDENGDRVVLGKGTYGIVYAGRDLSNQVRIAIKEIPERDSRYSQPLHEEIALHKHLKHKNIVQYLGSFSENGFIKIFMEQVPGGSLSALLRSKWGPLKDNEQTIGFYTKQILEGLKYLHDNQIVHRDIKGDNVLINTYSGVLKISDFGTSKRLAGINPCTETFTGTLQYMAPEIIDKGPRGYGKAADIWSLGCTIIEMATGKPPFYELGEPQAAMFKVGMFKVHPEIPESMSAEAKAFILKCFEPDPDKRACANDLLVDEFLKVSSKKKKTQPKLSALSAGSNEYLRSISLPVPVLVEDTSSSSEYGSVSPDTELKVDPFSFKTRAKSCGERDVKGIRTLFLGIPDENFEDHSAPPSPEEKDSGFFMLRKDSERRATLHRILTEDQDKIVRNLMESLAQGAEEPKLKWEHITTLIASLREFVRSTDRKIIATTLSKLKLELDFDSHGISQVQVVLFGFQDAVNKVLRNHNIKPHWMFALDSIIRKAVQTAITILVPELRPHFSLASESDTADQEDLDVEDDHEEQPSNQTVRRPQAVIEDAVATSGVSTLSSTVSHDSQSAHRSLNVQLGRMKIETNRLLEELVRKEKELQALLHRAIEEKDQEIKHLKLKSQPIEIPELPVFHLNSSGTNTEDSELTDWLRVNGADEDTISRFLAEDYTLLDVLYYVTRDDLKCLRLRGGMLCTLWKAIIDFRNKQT

[4] = biological target: Death-associated protein kinase 2 (Homo sapiens, UniProt Q9UIK4)
Sequence of Death-associated protein kinase 2 (Q9UIK4 whole entry): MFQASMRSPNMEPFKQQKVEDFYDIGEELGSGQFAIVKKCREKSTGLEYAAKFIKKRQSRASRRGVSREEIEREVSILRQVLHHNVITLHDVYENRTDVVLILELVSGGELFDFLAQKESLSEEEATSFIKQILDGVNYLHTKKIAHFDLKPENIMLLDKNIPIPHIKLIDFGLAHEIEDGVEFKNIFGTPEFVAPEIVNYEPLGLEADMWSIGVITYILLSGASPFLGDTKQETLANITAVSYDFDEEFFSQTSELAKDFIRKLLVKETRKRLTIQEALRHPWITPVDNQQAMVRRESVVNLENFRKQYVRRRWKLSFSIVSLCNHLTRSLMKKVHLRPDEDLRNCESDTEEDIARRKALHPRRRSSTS

Measured: Kd

C#Cc1cccc(Nc2ncnc3cc(OCCOC)c(OCCOC)cc23)c1 [ERLOTINIB]
Not Active: all assays above

Cc1ccc(NC(=O)c2ccc(CN3CCN(C)CC3)cc2)cc1Nc1nccc(-c2cccnc2)n1 [IMATINIB]
Not Active: [2] | [3] | [4]

O=c1ncn2nc(Sc3ccc(F)cc3F)ccc2c1-c1c(Cl)cccc1Cl [NEFLAMAPIMOD]
Not Active: all assays above

CCOc1cc2ncc(C#N)c(Nc3ccc(F)c(Cl)c3)c2cc1NC(=O)/C=C/CN(C)C [PELITINIB]
Not Active: all assays above

Oc1ccc(-c2nc(-c3ccc(F)cc3)c(-c3ccncc3)[nH]2)cc1 [SB-202190]
Not Active: all assays above

C[S+]([O-])c1ccc(-c2nc(-c3ccc(F)cc3)c(-c3ccncc3)[nH]2)cc1 (configuration not stated) [SB-203580]
Not Active: all assays above

CC[C@H](CO)Nc1nc(NCc2ccccc2)c2ncn(C(C)C)c2n1 [SELICICLIB]
Not Active: all assays above

Oc1c2ccccc2c2c3c(cccc13)N=N2 [SP-600125]
Not Active: [3]

COc1cc2c(N3CCN(C(=O)Nc4ccc(OC(C)C)cc4)CC3)ncnc2cc1OCCCN1CCCCC1 [TANDUTINIB]
Not Active: all assays above
